Reference: ChEMBL document CHEMBL1201862, “PubChem BioAssay data set” (2004)
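Test compounds were applied to cells in 96-well plates for 48 hours at 5 doses. The concentration for 50% growth inhibition is given as GI50.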 Activity calls are given as the source filed them. Rule as the data show it: active = GI50 up to about 1.1 µM and inactive = higher.

What was measured:
Test in all cases: inhibition of tumour cell growth, NCI panel, 48 h
CCRF-CEM = system: CCRF-CEM
SK-MEL-5 = system: SK-MEL-5
OVCAR-3 = system: OVCAR-3
SF-268 = system: SF-268
OVCAR-4 = system: OVCAR-4
SN12C = system: SN12C
KM12 = system: KM12
UACC-62 = system: UACC-62
K562 = system: K562
SF-295 = system: SF-295
SW-620 = system: SW-620
HCT-116 = system: HCT-116
SNB-75 = system: SNB-75
U-251 = system: U-251
SK-MEL-28 = system: SK-MEL-28
HOP-92 = system: HOP-92
OVCAR-5 = system: OVCAR-5
Malme-3M = system: Malme-3M
RPMI-8226 = system: RPMI-8226
A498 = system: A498

| SMILES | GI50 (CCRF-CEM) | GI50 (SK-MEL-5) | GI50 (OVCAR-3) | GI50 (SF-268) | GI50 (OVCAR-4) | GI50 (SN12C) | GI50 (KM12) | GI50 (UACC-62) | GI50 (K562) | GI50 (SF-295) | GI50 (SW-620) | GI50 (HCT-116) | GI50 (SNB-75) | GI50 (U-251) | GI50 (SK-MEL-28) | GI50 (HOP-92) | GI50 (OVCAR-5) | GI50 (Malme-3M) | GI50 (RPMI-8226) | GI50 (A498) |
| --- | --- | --- | --- | --- | --- | --- | --- | --- | --- | --- | --- | --- | --- | --- | --- | --- | --- | --- | --- | --- |
| c1ccc(CCn2cncn2)cc1 | > 100 µM (inactive) | > 100 µM (inactive) | > 100 µM (inactive) | > 100 µM (inactive) | > 100 µM (inactive) | > 100 µM (inactive) | > 100 µM (inactive) | > 100 µM (inactive) | > 100 µM (inactive) | > 100 µM (inactive) | > 100 µM (inactive) | > 100 µM (inactive) | > 100 µM (inactive) | > 100 µM (inactive) | > 100 µM (inactive) | > 100 µM (inactive) | > 100 µM (inactive) | > 100 µM (inactive) | – | – |
| COc1cc2c(cc1OC)-c1cc3ccccc3c[n+]1CC2 | > 100 µM (inactive) | 22.9 µM (inactive) | 51.5 µM (inactive) | 27.5 µM (inactive) | > 100 µM (inactive) | 39.6 µM (inactive) | 65.3 µM (inactive) | > 100 µM (inactive) | 48.4 µM (inactive) | 74.8 µM (inactive) | > 100 µM (inactive) | > 100 µM (inactive) | > 100 µM (inactive) | 33.6 µM (inactive) | > 100 µM (inactive) | > 100 µM (inactive) | > 100 µM (inactive) | 25.4 µM (inactive) | 36.6 µM (inactive) | – |
| CCCCCCCCCCCCCCCCCc1cc(Cl)nc(Cl)n1 | > 100 µM (inactive) | > 100 µM (inactive) | > 100 µM (inactive) | > 100 µM (inactive) | > 100 µM (inactive) | > 100 µM (inactive) | > 100 µM (inactive) | > 100 µM (inactive) | > 100 µM (inactive) | > 100 µM (inactive) | > 100 µM (inactive) | – | > 100 µM (inactive) | > 100 µM (inactive) | > 100 µM (inactive) | – | > 100 µM (inactive) | > 100 µM (inactive) | 43.7 µM (inactive) | – |
| O=C(Nc1cccc(O)c1)C(=O)C(C(=O)c1ccccc1F)C1OC(=O)c2ccccc21 (stereo not drawn) | 18.3 µM (inactive) | 36.1 µM (inactive) | – | 19.6 µM (inactive) | 23.9 µM (inactive) | 19.4 µM (inactive) | 18.4 µM (inactive) | 16.9 µM (inactive) | 37.3 µM (inactive) | 52.6 µM (inactive) | 35.7 µM (inactive) | 18 µM (inactive) | 17.5 µM (inactive) | 11.6 µM (inactive) | 31 µM (inactive) | 68.1 µM (inactive) | 57 µM (inactive) | – | 23.4 µM (inactive) | 66.5 µM (inactive) |
| Nc1ccc(Sc2nnc(N)s2)cc1 | > 100 µM (inactive) | > 100 µM (inactive) | – | > 100 µM (inactive) | > 100 µM (inactive) | > 100 µM (inactive) | > 100 µM (inactive) | – | > 100 µM (inactive) | > 100 µM (inactive) | > 100 µM (inactive) | > 100 µM (inactive) | > 100 µM (inactive) | > 100 µM (inactive) | > 100 µM (inactive) | – | > 100 µM (inactive) | – | > 100 µM (inactive) | – |
| CCN(CC)/[N+]([O-])=N/OC | > 100 µM (inactive) | > 100 µM (inactive) | > 100 µM (inactive) | > 100 µM (inactive) | – | > 100 µM (inactive) | > 100 µM (inactive) | > 100 µM (inactive) | > 100 µM (inactive) | > 100 µM (inactive) | > 100 µM (inactive) | > 100 µM (inactive) | – | > 100 µM (inactive) | > 100 µM (inactive) | > 100 µM (inactive) | > 100 µM (inactive) | – | – | > 100 µM (inactive) |
| C/C(=N\NS(=O)(=O)c1ccccc1)c1ccccc1 | > 100 µM (inactive) | > 100 µM (inactive) | > 100 µM (inactive) | > 100 µM (inactive) | > 100 µM (inactive) | > 100 µM (inactive) | > 100 µM (inactive) | > 100 µM (inactive) | > 100 µM (inactive) | > 100 µM (inactive) | > 100 µM (inactive) | > 100 µM (inactive) | > 100 µM (inactive) | > 100 µM (inactive) | > 100 µM (inactive) | > 100 µM (inactive) | > 100 µM (inactive) | > 100 µM (inactive) | > 100 µM (inactive) | – |
| Oc1ccc2ccccc2c1/N=N/c1cccc2ccccc12 | > 100 µM (inactive) | > 100 µM (inactive) | > 100 µM (inactive) | 55.5 µM (inactive) | > 100 µM (inactive) | > 100 µM (inactive) | > 100 µM (inactive) | > 100 µM (inactive) | > 100 µM (inactive) | > 100 µM (inactive) | > 100 µM (inactive) | > 100 µM (inactive) | 23.6 µM (inactive) | 50.6 µM (inactive) | – | > 100 µM (inactive) | > 100 µM (inactive) | 91.6 µM (inactive) | – | > 100 µM (inactive) |
| O=C1CNc2cc(N3CCCCC3)ccc2N1 | 99.5 µM (inactive) | 43.8 µM (inactive) | > 100 µM (inactive) | – | > 100 µM (inactive) | > 100 µM (inactive) | 49.4 µM (inactive) | 25.4 µM (inactive) | > 100 µM (inactive) | > 100 µM (inactive) | > 100 µM (inactive) | – | 66.2 µM (inactive) | > 100 µM (inactive) | > 100 µM (inactive) | > 100 µM (inactive) | > 100 µM (inactive) | > 100 µM (inactive) | > 100 µM (inactive) | – |
| C=C(C)C(=O)O[C@H]1CC2=C[C@@H](C[C@@]3(C)O[C@@H]3[C@H]3OC(=O)C(=C)[C@@H]31)OC2=O [ELEPHANTOPIN] | – | 4.29 µM (inactive) | 1.2 µM (inactive) | 0.818 µM (active) | 2.61 µM (inactive) | 4.03 µM (inactive) | 3.31 µM (inactive) | 3.5 µM (inactive) | – | 5.57 µM (inactive) | 0.695 µM (active) | 1.16 µM (inactive) | 7.98 µM (inactive) | 6.49 µM (inactive) | 1.71 µM (inactive) | 1.13 µM (inactive) | 6.55 µM (inactive) | 2.12 µM (inactive) | – | 5.13 µM (inactive) |
| COc1cc(O)c2c(c1)C(=O)c1cc(C)cc(O)c1C2=O [PHYSCION] | > 100 µM (inactive) | > 100 µM (inactive) | > 100 µM (inactive) | > 100 µM (inactive) | > 100 µM (inactive) | > 100 µM (inactive) | > 100 µM (inactive) | > 100 µM (inactive) | > 100 µM (inactive) | > 100 µM (inactive) | > 100 µM (inactive) | > 100 µM (inactive) | 93.8 µM (inactive) | > 100 µM (inactive) | > 100 µM (inactive) | – | > 100 µM (inactive) | > 100 µM (inactive) | > 100 µM (inactive) | > 100 µM (inactive) |
